Assay results from patent US10053476B2, “Phosphohistidine and phosphotyrosine analogues” (UNIVERSITY OF SHEFFIELD, priority 2013, dated 2018).

How the values were obtained:
[1] = tested on: polyclonal sera raised against 4-phosphopyrazol-1-yl alanine; experiment: Dot blot of BSA-glutaraldehyde conjugated analogues with affinity depleted rabbit and rat sera; type: binding; details: BSA-glutaraldehyde conjugated analogue; rabbit and rat sera affinity depleted with histidine-KLH
Method: Solutions of the BSA-amino acid conjugates of histidine, tele-phosphohistidine, and the analogues, were first diluted 1000 fold. These solutions as well as the commercially available solutions of BSA conjugated to phosphoserine, phosphothreonine, and phosphotyrosine were spotted (2 μL) onto a PVDF membrane. Once the spots were dry, the membrane was rinsed with methanol before being blocked in 5% non-fat dry milk in 10 mM Tris-HCl pH 8.0, 17 mM NaCl (TBS), Tween (0.05%) (5% NFDM/TBST) for 1 hour and then incubated with the rat sera raised against the analogue of interest at 1/1000 dilution in 5% NFDM/TBST overnight at 4° C. The membrane was then washed using TBS-Tween (0.05%) 3 times for 15 minutes, before being incubated with a 1/2000 fold dilution of goat anti-rat IgG-HRP conjugate in 5% NFDM/TBST for 60 minutes at room temperature. Membranes were then washed 3 times for 15 minutes using TBS-Tween (0.05%) and then treated with SuperSignal West Dura Chemiluminescent Substrate for 3 minutes. […]
In addition, further antibodies against 4-phosphopyrazol-1-yl alanine were raised as described in sections 2.1.1 to 2.1.4 above, and dot blot analysis conducted as described in section 2.5. […] The data establishes that 4-phosphopyrazol-1-yl alanine amide and 4-phosphothiazol-1-yl alanine amide are detected by the polyclonal sera raised against 4-phosphopyrazol-1-yl alanine.

| Compound | melting point | detection by polyclonal sera raised against 4-phosphopyrazol-1-yl alanine (dot blot) [1] |
| --- | --- | --- |
| N[C@@H](Cc1cc(P(=O)(O)O)cs1)C(=O)O [Compound 17] | 260 °C | – |
| N[C@@H](Cc1ncc(P(=O)(O)O)s1)C(=O)O [Compound 20, (S)-2-Amino-3-(5-phosphoryl-1,3-thiazol-2-yl)propanoic acid] | 196 to 199 °C (dec.) | – |
| C[C@H](N[SH]1C=NC(P(=O)(O)O)=C1)C(N)=O (some centres unmarked) [4-phosphothiazol-1-yl alanine amide] | – | detected |
| N[C@@H](Cc1ccc(P(=O)(O)O)cn1)C(=O)O [Compound 6] | 270 °C | – |
| N[C@@H](Cn1cc(P(=O)(O)O)cn1)C(=O)O [Compound 12] | 200 °C | – |
